This is an account of results in ChEMBL document CHEMBL1135513 (J Med Chem, 2002).

Molecules are shown by their SMILES.

Experiment [1] deals with T1, GABA-A receptor; alpha-1/beta-2/gamma-2 (Homo sapiens, UniProt P14867+P18507+P47870).
T1 sequence (P14867 whole entry): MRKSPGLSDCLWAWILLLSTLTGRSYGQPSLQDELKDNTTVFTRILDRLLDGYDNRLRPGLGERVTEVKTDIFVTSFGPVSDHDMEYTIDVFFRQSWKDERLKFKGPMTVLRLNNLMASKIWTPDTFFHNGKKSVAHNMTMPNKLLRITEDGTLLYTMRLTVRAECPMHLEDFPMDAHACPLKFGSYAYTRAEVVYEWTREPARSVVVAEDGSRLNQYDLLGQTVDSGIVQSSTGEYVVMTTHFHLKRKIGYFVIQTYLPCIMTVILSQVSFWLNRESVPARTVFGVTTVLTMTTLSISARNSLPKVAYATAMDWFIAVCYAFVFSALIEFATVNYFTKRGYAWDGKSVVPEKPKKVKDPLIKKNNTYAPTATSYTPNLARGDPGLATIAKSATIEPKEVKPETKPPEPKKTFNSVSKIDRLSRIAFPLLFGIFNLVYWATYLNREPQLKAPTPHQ
T1 sequence (P47870 whole entry): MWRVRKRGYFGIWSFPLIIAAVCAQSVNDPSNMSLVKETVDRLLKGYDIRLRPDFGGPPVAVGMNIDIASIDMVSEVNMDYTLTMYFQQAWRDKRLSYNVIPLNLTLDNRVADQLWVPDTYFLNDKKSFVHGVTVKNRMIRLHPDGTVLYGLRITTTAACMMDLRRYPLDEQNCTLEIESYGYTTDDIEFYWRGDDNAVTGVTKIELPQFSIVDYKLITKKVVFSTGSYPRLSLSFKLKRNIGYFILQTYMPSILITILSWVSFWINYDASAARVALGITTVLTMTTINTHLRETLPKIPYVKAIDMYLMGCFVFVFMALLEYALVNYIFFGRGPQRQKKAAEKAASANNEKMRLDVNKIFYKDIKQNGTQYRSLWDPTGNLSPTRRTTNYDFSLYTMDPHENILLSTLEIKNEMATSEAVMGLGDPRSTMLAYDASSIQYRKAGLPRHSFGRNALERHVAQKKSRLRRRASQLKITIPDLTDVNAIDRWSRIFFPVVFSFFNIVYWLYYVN
T1 sequence (P18507 whole entry): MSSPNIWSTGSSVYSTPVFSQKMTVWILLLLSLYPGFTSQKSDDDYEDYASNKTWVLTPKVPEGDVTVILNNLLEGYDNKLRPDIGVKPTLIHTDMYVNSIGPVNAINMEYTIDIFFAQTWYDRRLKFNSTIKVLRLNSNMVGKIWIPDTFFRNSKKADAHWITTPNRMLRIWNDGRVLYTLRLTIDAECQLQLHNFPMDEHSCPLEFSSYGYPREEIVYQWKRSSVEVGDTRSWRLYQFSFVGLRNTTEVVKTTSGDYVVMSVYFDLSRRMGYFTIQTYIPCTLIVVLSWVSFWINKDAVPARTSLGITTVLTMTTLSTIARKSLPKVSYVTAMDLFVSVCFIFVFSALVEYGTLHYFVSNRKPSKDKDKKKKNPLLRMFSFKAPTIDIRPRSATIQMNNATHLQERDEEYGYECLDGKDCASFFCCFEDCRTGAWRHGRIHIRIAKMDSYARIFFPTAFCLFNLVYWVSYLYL
The experiment is described as follows: Potentiation of GABA responses at human Gamma-aminobutyric acid A receptor alpha-1-beta-2-gamma-2. It is filed as protein-complex assay.

The subject of experiment [2] is Xenopus laevis. The experiment is described as follows: Loss of righting reflex (LORR) in tadpoles was determined for anesthetic activity. The conditions noted are these: Tadpole. It is filed as functional, organism-based, frog.
Experiment [3] has as its target T1, GABA-A receptor; alpha-1/beta-2/gamma-2. The experiment is described as follows: Direct activation of human Gamma-aminobutyric acid A receptor alpha-1-beta-2-gamma-2. It is filed as protein-complex assay.
Experiment [4] relates to Xenopus laevis. The experiment is described as follows: Loss of righting reflex (LORR) in Xenopus laevis tadpoles was determined for anesthetic activity. The class given is functional, organism-based, frog. The conditions noted are these: Tadpole.

`Oc1c(C2CCCCC2)cccc1C1CCCCC1`: in experiment [1], the EC50 was 100000 µM.

`CC(C)Cc1cccc(CC(C)C)c1O`: the values for the EC50 (in the experiment on Xenopus laevis [2]; in experiment [3]; in experiment [1]) were 0.398 µM, 20 µM and 2.51 µM, respectively.

For `CCc1cccc(CC)c1N=C=S`, the results for the concentration giving a half-maximal response (EC50) (in the experiment with Xenopus laevis [2]; in experiment [3]; in experiment [1]) were 158 µM, 316 µM and 15.8 µM, respectively.

For the compound `Oc1ccccc1C1CCCC1`, in experiment [1], the EC50 was 100000 µM.

With `CCc1cccc(CC)c1N=C=O`, the EC50 with Xenopus laevis [2] was 158 µM; in experiment [3], 251 µM; in experiment [1], 25.1 µM.

As for `CC(C)c1cc(O)c(O)c(C(C)C)c1`, the EC50 in the experiment on Xenopus laevis [2] is 50.1 µM; in experiment [3], 200 µM; in experiment [1], 39.8 µM.

Turning to `CCc1cccc(CC)c1Br`, the concentration for a half-maximal effect (EC50) with Xenopus laevis [2] was 158 µM; in experiment [3], 126 µM; in experiment [1] it was 20 µM.

Regarding `Cc1cccc(C(C)(C)C)c1O`, the EC50 in the experiment with Xenopus laevis [2] was 31.6 µM; in experiment [3] it was 20 µM; in experiment [1], 0.501 µM.

As to `CCc1cccc(CC)c1O`, the EC50 is 20 µM in the experiment with Xenopus laevis [2], 126 µM in experiment [3] and 12.6 µM in experiment [1].

As to `CC(C)c1ccccc1O`, the EC50 with Xenopus laevis [2] was 126 µM; in experiment [3] it was 158 µM; in experiment [1], 39.8 µM.

Turning to `Cc1cccc(C)c1O`, the EC50 in the experiment with Xenopus laevis [2] is 63.1 µM; in experiment [3] it was 200 µM; in experiment [1] it was 126 µM.

For `CC(C)(C)c1cc(O)cc(C(C)(C)C)c1`, the concentration giving a half-maximal response (EC50) in the experiment on Xenopus laevis [2] was 100 µM; in experiment [3] it was 501 µM; in experiment [1] it was 100 µM.

Turning to `CC(C)c1cc(I)cc(C(C)C)c1O`, the concentration giving a half-maximal response (EC50) in experiment [3] was 31.6 µM; with Xenopus laevis [4], 2.51 µM; in experiment [1] it was 10 µM.

As to `Oc1ccccc1` [PHENOL], the half-maximal effective concentration (EC50) is 1580 µM in the experiment with Xenopus laevis [2] and 1000 µM in experiment [1].

For the compound `CC(C)c1cccc(C(C)C)c1O` [PROPOFOL], the EC50 is 2 µM with Xenopus laevis [2], 10 µM in experiment [3] and 2 µM in experiment [1].

As for `COc1cccc(OC)c1O` [SYRINGOL], in experiment [1], the EC50 is 100000 µM.

The term EC50 denotes the midpoint of the concentration-response curve.
